Reference: patent US9701663B2, “Sulfonamide retinoic acid receptor-related orphan receptor modulators and uses thereof” (INNOV17 LLC, priority 2014, dated 2017)

Columns and labels:
Assay type in all cases: cell-based
Conditions in all cases: 72 h; human CD4+ T cells under TH17-polarizing conditions, 3 days; supernatant ELISA
IL-17A = assay: Human TH17 cytokine inhibition measured by ELISA: IL-17A
Method: (§1) Human TH17 Cytokine Inhibition as Measured by ELISA
(§2) Peripheral blood mononuclear cells (PBMCs) were sourced from freshly prepared leukocyte enriched plasma (buffy coat) from healthy donors (New York Blood Center). PBMCs were isolated by density gradient centrifugation using Ficoll-Paque™ PLUS (GE Healthcare). Human CD4+ T cells were seeded into 96-well plates (5×10^4 cells/well) and activated with plate-bound anti-human (h)-CD3 antibody and soluble h-aCD28 (both at 1 ug/ml; eBioscience) and differentiated into TH17 cells with 20 ng/mL h-IL-6, 5 ng/mL h-TGF-β1, 10 ng/mL h-IL-23 (eBioscience) and 10 ng/mL IL-1 β (Miltenyi Biotec) in serum-free TexMACS Medium (Miltenyi Biotec) supplemented with 1% Penicillin/Streptomycin (Lonza) for 3 days. CD4+ T cells propagated under TH17-polarizing conditions were cultured in the presence or absence of various concentrations of compounds with a final concentration of 0.1% DMSO. Supernatants were collected and stored at −20° C. until assayed for IL-17A, IL-17F and IL-21 levels by “Ready-Set-Go” ELISA kits (eBioscience) as per manufacturer's instructions. Endpoint absorbance was read at 450 nm using a microplate reader (Perkin Elmer).

IL-17F = assay: Human TH17 cytokine inhibition measured by ELISA: IL-17F
Method: as §1, §2

IL-21 = assay: Human TH17 cytokine inhibition measured by ELISA: IL-21
Method: as §1, §2

IL-22 = assay: Human TH17 cytokine inhibition measured by ELISA: IL-22

| IC50 (IL-17A) [µM] | IC50 (IL-17F) [µM] | IC50 (IL-21) [µM] | IC50 (IL-22) [µM] | Compound |
| --- | --- | --- | --- | --- |
| < 10 | < 10 | < 10 |  | C[C@@H]1C[C@H](Cn2ccc3cc(-c4cn[nH]c4)ccc32)CN1S(=O)(=O)c1ccccc1 (racemic) [Example 47, rac.-cis-1-((-5-methyl-1-(phenylsulfonyl)pyrrolidin-3-yl)methyl)-5-(1H-pyrazol-4-yl)-1H-indole] |
| < 10 | < 10 | > 10 |  | O=S(=O)(Cc1ccccc1)N1CCC(Cn2ccc3cc(-c4cn[nH]c4)ccc32)CC1 [Example 6, 1-((1-(benzylsulfonyl)piperidin-4-yl)methyl)-5-(1H-pyrazol-4-yl)-1H-indole] |
| > 10 | > 10 | > 10 |  | O=S(=O)(CC(F)(F)F)N1CCC(Cn2ccc3cc(-c4cn[nH]c4)ccc32)CC1 [Example 8, 5-(1H-pyrazol-4-yl)-1-((1-((2,2,2-trifluoroethyl)sulfonyl)piper-idin-4-yl)methyl)-1H-indole] |
| < 10 | < 10 | < 10 | < 10 | O=S(=O)(c1cccnc1)N1CCC(Cn2ccc3cc(-c4cn[nH]c4)ccc32)CC1 [Example 38, 5-(1H-pyrazol-4-yl)-1-((1-(pyridin-3-ylsulfonyl)piperidin-4-yl)methyl)-1H-indole] |
| < 10 | < 10 | < 10 |  | O=S(=O)(c1ccccc1)N1CCC(Cn2ccc3cc(-c4cn[nH]c4)ccc32)CC1 [Example 5, 1-((1-(phenylsulfonyl)piperidin-4-yl)methyl)-5-(1H-pyrazol-4-yl)-1H-indole] |
| < 10 | < 10 | < 10 |  | CC1(C)CC(Cn2ccc3cc(-c4cn[nH]c4)ccc32)CN1S(=O)(=O)c1ccccc1 (stereo not shown) [Example 29, 1-((5,5-dimethyl-1-(phenylsulfonyl)pyrrolidin-3-yl)methyl)-5-(1H-pyrazol-4-yl)-1H-indole] |
| < 10 | < 10 | < 10 |  | C[C@H]1C[C@H](Cn2ccc3cc(-c4cn[nH]c4)ccc32)CN1S(=O)(=O)c1ccccc1 (racemic) [Example 48, rac.-trans-1-((-5-methyl-1-(phenylsulfonyl)pyrrolidin-3-yl)methyl)-5-(1H-pyrazol-4-yl)-1H-indole] |
| < 10 | < 10 | < 10 |  | O=S(=O)(CCc1ccccc1)N1CCC(Cn2ccc3cc(-c4cn[nH]c4)ccc32)CC1 [Example 7, 1-((1-(phenethylsulfonyl)piperidin-4-yl)methyl)-5-(1H-pyrazol-4-yl)-1H-indole] |
| > 10 | > 10 | > 10 | > 10 | CS(=O)(=O)N1CCC(Cn2ccc3cc(-c4cn[nH]c4)ccc32)CC1 [Example 50, 1-((1-(methylsulfonyl)piperidin-4-yl)methyl)-5-(1H-pyrazol-4-yl)-1H-indole] |
| < 10 | < 10 | < 10 | < 10 | O=S(=O)(c1ccc(Cl)cc1)N1CCC(Cn2ccc3cc(-c4cn[nH]c4)ccc32)CC1 [Example 36, 1-((1-(4-chlorophenylsulfonyl)piperidin-4-yl)methyl)-5-(1H-pyrazol-4-yl)-1H-indole] |
| < 10 | < 10 | < 10 | < 10 | O=S(=O)(c1ccccc1F)N1CCC(Cn2ccc3cc(-c4cn[nH]c4)ccc32)CC1 [Example 40, 1-((1-(2-fluorophenylsulfonyl)piperidin-4-yl)methyl)-5-(1H-pyrazol-4-yl)-1H-indole] |
